Values joined by “and” are separate entries in the source; they are usually repeats but may differ in a detail not shown here. Equal values may be shown once. Read-outs that look alike come from different tables or passages of the source.
Experiments:
[1] = system: Capan-1 cells (K-Ras G12V); experiment: CellTiter-Glo cell viability, Capan-1; format: cell-based, human; conditions: K-Ras G12V, 5-day treatment, read-out: Capan-1 Cell Viability IC50
Summary of the method: (§1)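 Compounds were dispensed directly onto seeded cells and incubated until day 5, then plates were equilibrated at room temperature for about 30 min before CellTiter-Glo luminescence readout. Signals were normalized as (sample/average DMSO)×100 and fitted with a four-parameter logistic model.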

[2] = target: K-Ras G12C(GMP-PNP) binding to BRAF RBD (Homo sapiens (Human), UniProt P01116+P62937, G12C); experiment: Disruption of BRAF RBD interaction with K-Ras (FRET / MOA assay), K-Ras G12C; format: biochemical
Text: Note—The following protocol describes a procedure for monitoring disruption of K-Ras G12C(GMP-PNP) binding to BRAF^RBD by a compound of the invention. This protocol may also be executed substituting other Ras proteins or nucleotides.
The purpose of this biochemical assay was to measure the ability of test compounds to facilitate ternary complex formation between a nucleotide-loaded K-Ras isoform and Cyclophilin A; the resulting ternary complex disrupts binding to a BRAF^RBD construct, inhibiting K-Ras signaling through a RAF effector. Data is reported as IC50 values.
Compound was present in plate wells as a 10-point 3-fold dilution series starting at a final concentration of 30 μM. After incubation at 25° C. for 3 hours, a mixture of Anti-His Eu—W1024 and anti-GST allophycocyanin was then added to assay sample wells at final concentrations of 10 nM and 50 nM, respectively, and the reaction incubated for an additional 1.5 hours. […] Compounds that facilitate disruption of a K-Ras: RAF complex were identified as those eliciting a decrease in the TR-FRET ratio relative to DMSO control wells.

NRAS G12C = NRAS G12C (Homo sapiens (Human), UniProt P01111+P62937, G12C); experiment: Ras-Raf disruption/FRET/MOA assay (BRAF RBD, Cyclophilin A); format: biochemical; conditions: read-out: NRAS G12C FRET data IC50
Summary of the method: (§2)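 First, 25 μM Cyclophilin A, 12.5 nM His6-Ras-GMPPNP and 50 nM GST-BRAF RBD are mixed with diluted compound at pH 7.3. Next, 3 h at 25° C. Then 10 nM anti-His Eu-W1024 plus 50 nM anti-GST allophycocyanin for 1.5 h before TR-FRET reading.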

KRAS G13C = KRAS G13C (Homo sapiens (Human), UniProt P01116+P62937, G13C); experiment: as above; format: biochemical; conditions: read-out: KRAS G13C FRET IC50
Summary of the method: as §2

KRAS G12C = KRAS G12C (Homo sapiens (Human), UniProt P01116+P62937, G12C); experiment: as above; format: biochemical; conditions: read-out: KRAS G12C FRET IC50
Summary of the method: as §2

KRAS G12D = KRAS G12D (Homo sapiens (Human), UniProt P01116+P62937, G12D); experiment: as above; format: biochemical; conditions: read-out: KRAS G12D FRET IC50
Summary of the method: as §2

KRAS WT = KRAS WT (Homo sapiens (Human), UniProt P01116+P62937); experiment: as above; format: biochemical; conditions: read-out: KRAS WT FRET data IC50
Summary of the method: as §2

KRAS G12S = KRAS G12S (Homo sapiens (Human), UniProt P01116+P62937, G12S); experiment: as above; format: biochemical; conditions: read-out: KRAS G12S FRET IC50
Summary of the method: as §2

KRAS G13D = KRAS G13D (Homo sapiens (Human), UniProt P01116+P62937, G13D); experiment: as above; format: biochemical; conditions: read-out: KRAS G13D FRET data IC50
Summary of the method: as §2

KRAS G12V = KRAS G12V (Homo sapiens (Human), UniProt P01116+P62937, G12V); experiment: as above; format: biochemical; conditions: read-out: KRAS G12V FRET IC50
Summary of the method: as §2

[3] = system: NCI-H358 cells (K-Ras G12C); experiment: CellTiter-Glo cell viability, NCI-H358; format: cell-based, human; conditions: K-Ras G12C, 5-day treatment, read-out: H358 Cell Viability IC50
Summary of the method: as §1

NCI-H358 (K-Ras G12C) = experiment: CellTiter-Glo cell viability assay, NCI-H358; format: cell-based, human
Summary of the method: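 NCI-H358 cells were treated with test compounds dispensed directly into the assay wells and incubated until day 5. Viability was then read by CellTiter-Glo luminescence after a ~30 min room-temperature equilibration, normalized to the DMSO average (×100), and fit with a four-parameter logistic curve.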

[4] = system: K-Ras G12C (NCI-H358 cells); experiment: Potency assay: pERK in NCI-H358 cells; format: cell-based, human; conditions: NCI-H358 cells, 4 hours, read-out: pERK EC50 (H358 KRAS G12C)
Summary of the method: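 Cells plated the day before were exposed for 4 h at 37° C, 5% CO2 to a 10-point, 3-fold DMSO dilution series (10 mM top stock), in duplicate. Phospho-ERK was read by AlphaLISA SureFire Ultra or by In-Cell Western with DRAQ5 DNA stain, and IC50 came from a 4-parameter sigmoidal fit.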

[5] = Homo sapiens, NCI-H358, 120 h, 5-day treatment, read-out: H358 Cell Viability assay data (K-Ras G12C, IC50)

KRAS G12C, sequence (P01116-2 other isoform, or with tags, fused parts or gaps G12C): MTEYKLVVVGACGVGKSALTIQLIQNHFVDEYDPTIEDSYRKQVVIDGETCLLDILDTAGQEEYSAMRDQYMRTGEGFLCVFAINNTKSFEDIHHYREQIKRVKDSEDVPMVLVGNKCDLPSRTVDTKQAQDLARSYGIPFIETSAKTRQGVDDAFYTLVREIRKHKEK
KRAS G12C, sequence (P62937 whole entry): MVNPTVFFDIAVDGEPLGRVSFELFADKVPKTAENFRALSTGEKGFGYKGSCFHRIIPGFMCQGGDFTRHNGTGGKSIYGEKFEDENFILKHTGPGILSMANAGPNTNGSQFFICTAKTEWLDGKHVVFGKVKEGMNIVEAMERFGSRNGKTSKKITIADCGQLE
K-Ras G12C(GMP-PNP) binding to BRAF RBD, sequence (P01116 other isoform, or with tags, fused parts or gaps G12C): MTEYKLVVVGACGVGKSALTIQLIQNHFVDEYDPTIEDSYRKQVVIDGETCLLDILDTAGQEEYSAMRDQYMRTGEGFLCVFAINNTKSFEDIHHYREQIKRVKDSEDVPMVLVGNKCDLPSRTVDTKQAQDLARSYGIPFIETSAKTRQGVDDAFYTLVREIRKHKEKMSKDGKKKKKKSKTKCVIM
K-Ras G12C(GMP-PNP) binding to BRAF RBD, sequence (P62937 whole entry): as the sequence (P62937 whole entry) above
KRAS WT, sequence (P01116 other isoform, or with tags, fused parts or gaps): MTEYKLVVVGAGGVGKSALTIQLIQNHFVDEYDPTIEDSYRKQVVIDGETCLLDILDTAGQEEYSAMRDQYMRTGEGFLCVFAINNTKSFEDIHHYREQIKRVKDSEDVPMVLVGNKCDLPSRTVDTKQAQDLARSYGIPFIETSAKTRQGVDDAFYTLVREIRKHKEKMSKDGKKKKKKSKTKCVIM
KRAS WT, sequence (P62937 whole entry): as the sequence (P62937 whole entry) above
KRAS G12D, sequence (P01116 other isoform, or with tags, fused parts or gaps G12D): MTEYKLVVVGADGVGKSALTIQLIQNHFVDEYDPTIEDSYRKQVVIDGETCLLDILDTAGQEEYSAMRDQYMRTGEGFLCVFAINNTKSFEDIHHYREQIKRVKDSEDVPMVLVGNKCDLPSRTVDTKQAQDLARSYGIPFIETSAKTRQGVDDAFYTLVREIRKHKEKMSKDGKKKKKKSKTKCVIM
KRAS G12D, sequence (P62937 whole entry): as the sequence (P62937 whole entry) above
KRAS G13D, sequence (P01116 other isoform, or with tags, fused parts or gaps G13D): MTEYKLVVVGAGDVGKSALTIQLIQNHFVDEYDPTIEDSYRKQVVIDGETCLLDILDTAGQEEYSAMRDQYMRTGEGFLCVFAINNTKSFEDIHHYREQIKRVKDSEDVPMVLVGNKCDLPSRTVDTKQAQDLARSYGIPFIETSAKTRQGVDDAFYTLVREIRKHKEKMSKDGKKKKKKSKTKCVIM
KRAS G13D, sequence (P62937 whole entry): as the sequence (P62937 whole entry) above
NRAS G12C, sequence (P01111 whole entry G12C): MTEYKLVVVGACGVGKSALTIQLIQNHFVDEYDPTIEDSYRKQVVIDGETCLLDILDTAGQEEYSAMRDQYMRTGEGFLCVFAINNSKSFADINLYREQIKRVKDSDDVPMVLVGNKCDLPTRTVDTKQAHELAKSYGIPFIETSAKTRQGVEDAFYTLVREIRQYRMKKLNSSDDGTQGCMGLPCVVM
NRAS G12C, sequence (P62937 whole entry): as the sequence (P62937 whole entry) above
KRAS G12V, sequence (P01116 other isoform, or with tags, fused parts or gaps G12V): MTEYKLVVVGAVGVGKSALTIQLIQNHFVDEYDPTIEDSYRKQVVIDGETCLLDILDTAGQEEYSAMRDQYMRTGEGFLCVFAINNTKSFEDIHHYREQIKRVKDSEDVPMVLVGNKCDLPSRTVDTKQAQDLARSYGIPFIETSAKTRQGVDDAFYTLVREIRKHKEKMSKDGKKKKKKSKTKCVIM
KRAS G12V, sequence (P62937 whole entry): as the sequence (P62937 whole entry) above
KRAS G13C, sequence (P01116 other isoform, or with tags, fused parts or gaps G13C): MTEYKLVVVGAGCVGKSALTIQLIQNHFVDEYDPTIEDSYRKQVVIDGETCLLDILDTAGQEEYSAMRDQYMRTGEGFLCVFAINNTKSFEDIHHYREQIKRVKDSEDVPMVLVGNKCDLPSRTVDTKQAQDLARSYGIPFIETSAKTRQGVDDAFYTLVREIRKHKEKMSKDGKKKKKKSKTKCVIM
KRAS G13C, sequence (P62937 whole entry): as the sequence (P62937 whole entry) above
KRAS G12S, sequence (P01116 other isoform, or with tags, fused parts or gaps G12S): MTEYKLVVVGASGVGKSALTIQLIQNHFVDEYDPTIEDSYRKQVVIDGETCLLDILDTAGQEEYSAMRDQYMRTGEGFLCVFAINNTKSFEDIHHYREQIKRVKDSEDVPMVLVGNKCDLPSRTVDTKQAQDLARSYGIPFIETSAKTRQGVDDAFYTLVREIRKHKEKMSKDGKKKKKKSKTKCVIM
KRAS G12S, sequence (P62937 whole entry): as the sequence (P62937 whole entry) above

Structure (SMILES)	IC50 ([1]; Homo sapiens, CAPAN-1, 120 h) [µM]	IC50 ([2]; read-out: KRAS G12C FRET IC50)	IC50 (NRAS G12C) [µM]	IC50 (KRAS G13C) [µM]	IC50 (KRAS G12C) [µM]	IC50 (KRAS G12D) [µM]	IC50 (KRAS WT) [µM]	IC50 (KRAS G12S) [µM]	IC50 (KRAS G13D) [µM]	IC50 (KRAS G12V) [µM]	IC50 ([3]; Homo sapiens, NCI-H358, 120 h) [µM]	IC50 ([2]; KRAS G12C FRET IC50)	IC50 (NCI-H358 (K-Ras G12C); [5]) [µM]	IC50 [1] [µM]	EC50 [4] [µM]	IC50 [3] [µM]	IC50 (NCI-H358 (K-Ras G12C); 5-day treatment, read-out: H358 Cell Viability assay data (K-Ras G12C, IC50)) [µM]	EC50 ([4]; Homo sapiens) [µM]	IC50 (NCI-H358 (K-Ras G12C); Homo sapiens, NCI-H358, 120 h, read-out: H358 Cell Viability assay data (K-Ras G12C, IC50, uM), 5-day treatment) [µM]
CCn1c(-c2cccnc2[C@H](C)OC)c2c3cc(ccc31)-c1csc(n1)C[C@H](NC(=O)[C@H](C(C)C)N1CCCC1=O)C(=O)N1CCC[C@H](N1)C(=O)OCC(C)(C)C2 [Compound A212]	> 10	0.1 to 1 µM and 1 to 10 µM	1 to 10	1 to 10	1 to 10	> 10	> 10	> 10	> 10	–	–	–	–	–	–	–	–	–	–
CCn1c(-c2cnccc2COC)c2c3cc(ccc31)-c1cc(O)cc(c1)C[C@H](NC(=O)[C@H](C(C)C)N(C)C(=O)[C@H]1CN(C(C)=O)C[C@H]1C(F)(F)F)C(=O)N1CCC[C@H](N1)C(=O)OCC(C)(C)C2 [Compound A215]	> 10	0.1 to 1 µM and > 10 µM	0.1 to 1	0.01 to 0.1	0.1 to 1	1 to 10	0.1 to 1	0.1 to 1	0.1 to 1	0.1 to 1	–	–	–	–	–	–	–	–	–
CCn1c(-c2cnccc2COC)c2c3cc(ccc31)-c1cc(O)cc(c1)C[C@H](NC(=O)[C@H](C(C)C)N(C)C(=O)[C@H]1CNC[C@H]1C(F)(F)F)C(=O)N1CCC[C@H](N1)C(=O)OCC(C)(C)C2 [Compound A216]	1 to 10	0.1 to 1 µM and 1 to 10 µM	0.1 to 1	0.01 to 0.1	0.01 to 0.1	0.1 to 1	0.01 to 0.1	0.1 to 1	0.01 to 0.1	1 to 10	1 to 10	–	–	–	–	–	–	–	–
CCn1c(-c2cccnc2[C@H](C)OC)c2c3cc(ccc31)-c1csc(n1)C[C@H](NC(=O)[C@H](C(C)C)N1CCC3(CCN(S(C)(=O)=O)C3)C1=O)C(=O)N1CCC[C@H](N1)C(=O)OCC(C)(C)C2 (stereo partly shown) [Compound A220]	–	–	1 to 10	1 to 10	1 to 10	> 10	1 to 10	1 to 10	> 10	1 to 10	–	0.1 to 1 µM and 1 to 10 µM	> 10	–	–	–	–	–	–
CCn1c(-c2cccnc2[C@H](C)OC)c2c3cc(ccc31)-c1cc(O)cc(c1)C[C@H](NC(=O)[C@H](C(C)C)N(C)C(=O)[C@@H]1C[C@@H]1C)C(=O)N1CCC[C@H](N1)C(=O)OCC(C)(C)C2 [Compound A223]	0.1 to 1	0.1 to 1 µM and > 10 µM	0.01 to 0.1	0.01 to 0.1	0.01 to 0.1	0.01 to 0.1	0.01 to 0.1	0.01 to 0.1	0.01 to 0.1	0.01 to 0.1	–	–	> 10	–	–	–	–	–	–
CCn1c(-c2cccnc2[C@H](C)OC)c2c3cc(ccc31)-c1csc(n1)C[C@H](NC(=O)[C@H]1[C@H](C)[C@@H]1C)C(=O)N1CCC[C@H](N1)C(=O)OCC(C)(C)C2 [Compound A227, (1R,2R,3S)—N-((6^3S,4S,Z)-1^1-ethyl-1^2-(2-((S)-1-methoxyethyl)pyridin-3-yl)-10,10-dimethyl-5,7-dioxo-6^1,6^2,6^3,6^4,6^5,6^6-hexahydro-1^1H-8-oxa-2 (4,2)-thiazola-1 (5,3)-indola-6 (1,3)-pyridazinacycloundecaphane-4-yl)-2,3-dimethylcyclopropane-1-carboxamide]	–	0.1 to 1 µM	–	0.01 to 0.1	–	–	–	–	–	–	–	–	–	> 10	< 5	1 to 10	0.1 to 1	–	–
CCn1c(-c2cccnc2[C@H](C)OC)c2c3cc(ccc31)-c1csc(n1)C[C@H](NC(=O)[C@H](C(C)C)N(C)C(=O)N1C[C@H](C)N(C)C[C@@H]1C)C(=O)N1CCC[C@H](N1)C(=O)OCC(C)(C)C2 [Compound A283]	0.1 to 1	0.01 to 0.1 µM and 1 to 10 µM	–	–	–	–	–	–	–	–	0.1 to 1	–	–	–	–	–	–	< 5	–
CCn1c(-c2cccnc2[C@H](C)OC)c2c3cc(ccc31)-c1cc(O)cc(c1)C[C@H](NC(=O)[C@H](C(C)C)N(C)C(=O)[C@H]1CCN(C(C)=O)C1)C(=O)N1CCC[C@H](N1)C(=O)NCC(C)(C)C2 [Compound A431]	–	0.1 to 1 µM	0.1 to 1	0.1 to 1	0.1 to 1	1 to 10	1 to 10	0.1 to 1	1 to 10	0.1 to 1	–	–	0.01 to 0.1	–	–	–	–	–	–
CCn1c(-c2cccnc2[C@H](C)OC)c2c3cc(ccc31)-c1csc(n1)C[C@H](NC(=O)[C@H](C(C)C)N(C)C(=O)N1CCC[C@@H](N(C)C)CC1)C(=O)N1CCC[C@H](N1)C(=O)OCC(C)(C)C2 [Compound A494]	–	0.1 to 1 µM	–	–	–	–	–	–	–	–	0.01 to 0.1	–	–	–	–	–	–	–	0.1 to 1
CCn1c(-c2cc(N3CCN(C)CC3)cnc2[C@H](C)OC)c2c3cc(ccc31)-c1csc(n1)C[C@H](NC(=O)[C@H](C(C)C)N(C)C(=O)[C@@H]1OCC[C@@H]1c1ccccc1)C(=O)N1CCC[C@H](N1)C(=O)OCC(C)(C)C2 [Compound A593]	< 0.01	0.1 to 1 µM	–	–	–	–	–	–	–	–	< 0.01	–	0.1 to 1	–	–	–	–	< 5	–

— US20250195521A1 (Revolution Medicines, Inc., priority 2020, published 2025)
